Results from patent publication US20130116241A1, “NOVEL INHIBITOR COMPOUNDS OF PHOSPHODIESTERASE TYPE 10A” (AbbVie Inc., priority 2011, published 2013).
Where a name gives a salt, the structure may show the parent alone.

Target: human PDE10A (UniProt Q9Y233)
Experiment: Measurement of PDE activity (recombinant enzyme, HTRF cAMP kit)
Type: biochemical
Details: Table 1, substrate 20 nM for PDE10, 60 minutes at 29 C, read-out: IC50
Procedure: The recombinant PDE proteins are used in in vitro enzymatic reaction for measurement of PDE activity. These recombinant proteins, including PDE10A (human, rat and mouse PDE10) and isoforms of PDEs 1, 3, 4, and 5, were purchased from commercial vendor BPS Bioscience. The enzymatic activity of PDEs was determined by cAMP measurement kit from CisBio (IBA) using HTRF technology.
The PDE enzymatic reaction was carried out in assay buffer (20 mM Tris-HCl pH7.5, 10 mM MgCl2, 0.1% bovine serum albumin) containing enzyme and substrate. The PDE enzymes concentration ranged from 10 pM-250 pM, depending on each enzyme's specific activity. The substrate cyclic nucleotide (cAMP or cGMP) concentration used in the assay was 20 nM for PDE10, and 100 nM for other PDEs. The inhibitory effect of compound was determined by incubating various concentration of inhibitor in the enzymatic assay. Typically, compound was serial diluted in DMSO then further diluted in assay buffer. Next, the compound at varying concentration was mixed with PDE enzyme. The reaction was initiated by addition of cyclic nucleotide substrate, and incubated for 60 minutes at 29 C. The reaction was stopped by addition of lysis buffer from assay kit. The cAMP-d2 and anti-cAMP cryptate in the lysis buffer detected the level of cAMP left from the PDE hydrolysis reaction. The PDE activity is reversely correlated with the amount of cAMP left in the reaction and can be converted to the percent activity of an uninhibited control (100%). Thus, IC50 value of inhibitor can be obtained by plotting inhibitor concentration against PDE activity at that concentration.

Chain of human PDE10A (Q9Y233 290-1055 limits assumed): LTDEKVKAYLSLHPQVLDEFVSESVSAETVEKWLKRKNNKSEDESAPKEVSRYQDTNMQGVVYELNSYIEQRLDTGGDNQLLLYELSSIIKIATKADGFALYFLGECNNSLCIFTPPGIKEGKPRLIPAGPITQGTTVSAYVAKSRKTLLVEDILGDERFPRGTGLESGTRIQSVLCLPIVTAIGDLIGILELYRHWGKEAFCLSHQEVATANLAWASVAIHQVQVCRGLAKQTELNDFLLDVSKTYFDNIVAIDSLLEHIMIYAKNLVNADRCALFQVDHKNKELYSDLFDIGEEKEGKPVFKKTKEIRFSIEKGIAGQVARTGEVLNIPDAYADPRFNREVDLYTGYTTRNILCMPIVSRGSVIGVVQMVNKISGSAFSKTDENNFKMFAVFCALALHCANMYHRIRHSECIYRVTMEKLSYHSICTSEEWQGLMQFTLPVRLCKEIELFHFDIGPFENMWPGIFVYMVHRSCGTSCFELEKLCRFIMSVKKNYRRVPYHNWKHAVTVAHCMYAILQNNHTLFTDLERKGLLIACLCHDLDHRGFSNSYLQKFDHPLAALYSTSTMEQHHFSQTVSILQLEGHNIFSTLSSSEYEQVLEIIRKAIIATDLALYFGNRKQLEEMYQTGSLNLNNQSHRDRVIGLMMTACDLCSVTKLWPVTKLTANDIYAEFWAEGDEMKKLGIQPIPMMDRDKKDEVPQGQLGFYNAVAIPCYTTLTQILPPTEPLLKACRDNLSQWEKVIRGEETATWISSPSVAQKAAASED

Row | IC50 | Compound
1 | < 100 nM | O=c1c2cccc(-c3cccnc3)c2cnn1CCc1cn2ccccc2n1 [Example 196, 2-[2-(Imidazo[1,2-a]pyridin-2-yl)ethyl]-5-(pyridin-3-yl)phthalazin-1(2H)-one]
2 | < 100 nM | O=c1c2ccsc2c(-c2ccncc2)nn1CCc1ccc2ccccc2n1 [Example 2, 7-(Pyridin-4-yl)-5-[2-(quinolin-2-yl)ethyl]thieno[2,3-d]pyridazin-4(5H)-one]
3 | < 100 nM | Cn1cc(-c2csc3cnn(CCc4ccc5ccccc5n4)c(=O)c23)cn1 [Example 56, 3-(1-methyl-1H-pyrazol-4-yl)-5-[2-(quinolin-2-yl)ethyl]thieno[2,3-d]pyridazin-4(5H)-one]
4 | < 100 nM | O=c1c2c(N[C@@H]3CCNC3)cccc2cnn1CCc1cn2ccccc2n1 [Example 219, 2-[2-(Imidazo[1,2-a]pyridin-2-yl)ethyl]-8-[(3R)-pyrrolidin-3-ylamino]phthalazin-1(2H)-one dihydrochloride]
5 | 200 to 500 nM | CC(=O)N1CCC(Nc2cccc3cnn(CCc4cn5ccccc5n4)c(=O)c23)CC1 [compound 390, 8-[(1-acetylpiperidin-4-yl)amino]-2-[2-(imidazo[1,2-a]pyridin-2-yl)ethyl]phthalazin-1(2H)-one]
6 | < 100 nM | O=c1c2c(-c3ccncc3)csc2cnn1CCc1cn2ccccc2n1 [Example 96, 5-[2-(Imidazo[1,2-a]pyridin-2-yl)ethyl]-3-(pyridin-4-yl)thieno[2,3-d]pyridazin-4(5H)-one]
7 | < 100 nM | O=c1c2cccc(-c3cncnc3)c2cnn1CCc1ccc2ccccc2n1 [Example 193, 5-(Pyrimidin-5-yl)-2-[2-(quinolin-2-yl)ethyl]phthalazin-1(2H)-one hydrochloride]
8 | < 100 nM | O=c1c2c(Oc3cccnc3)cccc2cnn1CCc1cn2ccccc2n1 [compound 382, 2-[2-(imidazo[1,2-a]pyridin-2-yl)ethyl]-8-(pyridin-3-yloxy)phthalazin-1(2H)-one]
9 | 100 to 200 nM | COc1cncc(-c2csc3cnn(CCc4ccc5ccccc5n4)c(=O)c23)c1 [Example 52, 3-(5-methoxypyridin-3-yl)-5-[2-(quinolin-2-yl)ethyl]thieno[2,3-d]pyridazin-4(5H)-one]
10 | 200 to 500 nM | COc1ccc(-c2csc3cnn(CCc4ccc5ccccc5n4)c(=O)c23)cc1OC [Example 71, 3-(3,4-dimethoxyphenyl)-5-[2-(quinolin-2-yl)ethyl]thieno[2,3-d]pyridazin-4(5H)-one]
11 | 200 to 500 nM | O=c1c2c(N3CC[C@H](O)C3)cccc2ccn1C1CC1c1ccc2ccccc2n1 (stereo partly drawn) [Example 249, anti 8-((3S)-3-hydroxypyrrolidin-1-yl)-2-(2-(quinolin-2-yl)cyclopropyl)isoquinolin-1(2H)-one di[(2E)-but-2-enedioate]]
12 | < 100 nM | O=c1c2c(N3CCC[C@H](O)C3)cccc2ccn1C1CC1c1ccc2ccccc2n1 (stereo partly drawn) [Example 244, anti 8-((3S)-3-hydroxypiperidin-1-yl)-2-(2-(quinolin-2-yl)cyclopropyl)isoquinolin-1(2H)-one (2E)-but-2-enedioate]
13 | < 100 nM | O=c1c2c(-c3cccnc3)cccc2ccn1C1CC1c1ccc2ccccc2n1 (stereo not drawn) [Example 239, anti 8-(pyridin-3-yl)-2-(2-(quinolin-2-yl)cyclopropyl)isoquinolin-1(2H)-one hydrochloride]
14 | < 100 nM | O=c1c2cccc(N3CCOCC3)c2cnn1CCc1cn2ccccc2n1 [Example 198, 2-[2-(Imidazo[1,2-a]pyridin-2-yl)ethyl]-5-(morpholin-4-yl)phthalazin-1(2H)-one hydrochloride]
15 | < 100 nM | O=c1c2c(-c3ccoc3)cccc2ccn1C1CC1c1ccc2ccccc2n1 (stereo not drawn) [Example 268, anti 8-(furan-3-yl)-2-(2-(quinolin-2-yl)cyclopropyl)isoquinolin-1(2H)-one]
16 | 100 to 200 nM | O=c1c2c(-c3cccc(F)c3)csc2cnn1CCc1ccc2ccccc2n1 [Example 30, 3-(3-fluorophenyl)-5-[2-(quinolin-2-yl)ethyl]thieno[2,3-d]pyridazin-4(5H)-one]
